Data from ChEMBL document CHEMBL3352376, “Amine substitution of quinazolinones leads to selective nanomolar AChE inhibitors with 'inverted' binding mode” (Bioorg Med Chem, 2014).
Where “and” joins values, the source holds several entries; their conditions need not be identical. Equal values may be shown once. Calls of active or inactive are those of the source. The calls are words filed in the database; no cut-off is given here.

Columns and labels:
[1] = biological target: Acetylcholinesterase (Electrophorus electricus, UniProt O42275)
Sequence of Acetylcholinesterase (Electrophorus electricus, UniProt O42275) (O42275 whole entry): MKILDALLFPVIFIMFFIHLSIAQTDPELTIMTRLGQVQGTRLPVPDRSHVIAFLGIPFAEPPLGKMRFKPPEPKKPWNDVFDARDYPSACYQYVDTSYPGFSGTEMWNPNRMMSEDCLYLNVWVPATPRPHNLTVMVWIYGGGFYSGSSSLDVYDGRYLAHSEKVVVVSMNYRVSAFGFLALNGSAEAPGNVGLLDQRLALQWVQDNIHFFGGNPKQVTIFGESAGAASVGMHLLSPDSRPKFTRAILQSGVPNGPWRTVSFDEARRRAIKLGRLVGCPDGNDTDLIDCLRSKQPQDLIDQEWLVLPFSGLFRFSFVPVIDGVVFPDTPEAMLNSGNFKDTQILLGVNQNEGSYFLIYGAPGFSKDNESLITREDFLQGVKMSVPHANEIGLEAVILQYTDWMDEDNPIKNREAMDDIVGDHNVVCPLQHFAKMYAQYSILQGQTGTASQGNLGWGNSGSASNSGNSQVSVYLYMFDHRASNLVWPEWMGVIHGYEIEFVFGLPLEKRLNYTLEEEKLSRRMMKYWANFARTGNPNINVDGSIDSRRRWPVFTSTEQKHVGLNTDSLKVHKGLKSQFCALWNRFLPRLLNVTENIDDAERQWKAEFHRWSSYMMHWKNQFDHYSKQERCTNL

[2] = biological target: Cholinesterase (Equus caballus, UniProt P81908)
Sequence of Cholinesterase (P81908 whole entry): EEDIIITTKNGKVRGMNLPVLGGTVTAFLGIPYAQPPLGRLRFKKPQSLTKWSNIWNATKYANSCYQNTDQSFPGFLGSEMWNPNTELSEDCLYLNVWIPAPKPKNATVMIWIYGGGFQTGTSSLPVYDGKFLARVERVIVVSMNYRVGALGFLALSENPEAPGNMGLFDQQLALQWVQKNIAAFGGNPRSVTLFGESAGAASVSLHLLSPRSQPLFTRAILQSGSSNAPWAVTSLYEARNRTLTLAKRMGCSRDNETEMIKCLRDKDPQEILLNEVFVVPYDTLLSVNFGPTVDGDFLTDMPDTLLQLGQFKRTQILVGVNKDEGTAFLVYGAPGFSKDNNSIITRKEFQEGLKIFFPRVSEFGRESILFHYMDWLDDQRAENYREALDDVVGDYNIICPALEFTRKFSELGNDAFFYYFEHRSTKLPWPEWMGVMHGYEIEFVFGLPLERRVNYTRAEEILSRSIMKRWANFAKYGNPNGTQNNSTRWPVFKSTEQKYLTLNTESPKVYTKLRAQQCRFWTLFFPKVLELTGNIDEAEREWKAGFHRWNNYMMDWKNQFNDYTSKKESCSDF

[3] = biological target: T1, Acetylcholinesterase (Homo sapiens, UniProt P22303)
T1 sequence (P22303 whole entry): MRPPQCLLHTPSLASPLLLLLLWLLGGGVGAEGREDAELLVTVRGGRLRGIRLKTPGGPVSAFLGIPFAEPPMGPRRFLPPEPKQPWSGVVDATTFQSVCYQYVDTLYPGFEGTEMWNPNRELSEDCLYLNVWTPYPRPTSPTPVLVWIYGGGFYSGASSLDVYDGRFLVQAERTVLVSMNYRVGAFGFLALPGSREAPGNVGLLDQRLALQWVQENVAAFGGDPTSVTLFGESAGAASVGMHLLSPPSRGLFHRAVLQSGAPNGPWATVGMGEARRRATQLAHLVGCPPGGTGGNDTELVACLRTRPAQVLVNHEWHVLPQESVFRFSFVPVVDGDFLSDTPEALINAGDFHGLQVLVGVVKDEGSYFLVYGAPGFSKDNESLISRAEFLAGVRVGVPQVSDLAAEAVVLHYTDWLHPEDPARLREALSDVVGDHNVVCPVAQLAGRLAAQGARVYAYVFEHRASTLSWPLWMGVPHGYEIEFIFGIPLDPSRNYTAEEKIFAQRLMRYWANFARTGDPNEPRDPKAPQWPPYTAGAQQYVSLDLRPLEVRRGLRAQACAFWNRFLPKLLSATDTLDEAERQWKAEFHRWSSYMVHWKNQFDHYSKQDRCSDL

[4] = biological target: Histamine H3 receptor (Homo sapiens, UniProt Q9Y5N1); experiment: Inhibition of human H3 receptor
Sequence of Histamine H3 receptor (Q9Y5N1 whole entry): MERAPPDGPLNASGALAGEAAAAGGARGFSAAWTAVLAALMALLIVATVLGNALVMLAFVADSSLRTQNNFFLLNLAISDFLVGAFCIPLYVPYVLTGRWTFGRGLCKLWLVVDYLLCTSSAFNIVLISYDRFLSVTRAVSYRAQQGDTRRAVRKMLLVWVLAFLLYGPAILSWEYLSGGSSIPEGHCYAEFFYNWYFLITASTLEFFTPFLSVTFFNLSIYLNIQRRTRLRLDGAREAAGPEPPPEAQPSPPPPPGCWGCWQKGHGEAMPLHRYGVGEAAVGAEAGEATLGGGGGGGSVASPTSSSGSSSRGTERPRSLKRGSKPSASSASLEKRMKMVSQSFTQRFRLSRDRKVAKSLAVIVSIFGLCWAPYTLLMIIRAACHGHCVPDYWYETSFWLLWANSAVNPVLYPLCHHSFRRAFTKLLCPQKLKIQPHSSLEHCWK

[5] = biological target: Acetylcholinesterase (Electrophorus electricus) (UniProt O42275); experiment: Inhibition of electric eel AChE at 50 uM
Sequence of Acetylcholinesterase (Electrophorus electricus) (O42275 24-633 limits assumed): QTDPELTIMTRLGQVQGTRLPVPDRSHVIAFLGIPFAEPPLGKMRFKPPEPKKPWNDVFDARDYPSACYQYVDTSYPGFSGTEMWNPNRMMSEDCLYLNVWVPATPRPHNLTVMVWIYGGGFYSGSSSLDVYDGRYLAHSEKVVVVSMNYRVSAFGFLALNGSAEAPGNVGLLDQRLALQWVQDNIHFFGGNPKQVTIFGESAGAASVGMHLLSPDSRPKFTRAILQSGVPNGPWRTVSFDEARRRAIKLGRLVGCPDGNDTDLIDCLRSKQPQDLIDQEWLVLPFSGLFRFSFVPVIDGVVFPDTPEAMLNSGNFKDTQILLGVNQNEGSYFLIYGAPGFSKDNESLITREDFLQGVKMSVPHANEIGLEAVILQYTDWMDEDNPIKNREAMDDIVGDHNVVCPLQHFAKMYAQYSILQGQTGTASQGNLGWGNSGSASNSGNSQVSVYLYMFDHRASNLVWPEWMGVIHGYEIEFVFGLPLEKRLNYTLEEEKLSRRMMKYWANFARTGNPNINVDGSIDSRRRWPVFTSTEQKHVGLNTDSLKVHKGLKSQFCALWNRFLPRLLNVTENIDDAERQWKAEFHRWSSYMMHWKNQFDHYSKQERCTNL

[6] = biological target: Cholinesterase (Equus caballus) (UniProt P81908); experiment: Inhibition of equine serum BChE at 50 uM
Sequence of Cholinesterase (Equus caballus) (P81908 whole entry): as the sequence (P81908 whole entry) above

[7] = biological target: T1, Acetylcholinesterase; experiment: Inhibition of human AChE at 100 uM

**Q.** Which results are given for `O=c1c2cc(OCCCN3CCCCCC3)ccc2nc2n1CCCCC2`?
**A.** IC50 [1]: 0.0392 µM; IC50 [2]: 1.8 µM

**Q.** How did the IC50 [3] turn out when `O=c1c2cc(OCCCN3CCCCC3)ccc2nc2n1CCCCC2` was run?
**A.** The IC50 was 0.82 µM.

**Q.** What about the IC50 [1] of the same compound?
**A.** Its IC50 is 0.043 µM.

**Q.** What about the IC50 [2] of the same compound?
**A.** The IC50 was 12.7 µM.

**Q.** With `O=c1c2cc(OCCCN3CCCCCC3)ccc2nc2n1CCC2` as the compound, how does the IC50 [1] read?
**A.** The IC50 was 0.0502 µM.

**Q.** What about the IC50 [2] of the same compound?
**A.** Its IC50 is 5.22 µM.

**Q.** For `O=c1c2cc(OCCCn3ccnc3)ccc2nc2n1CCC2`, which IC50 [1] is on record?
**A.** The IC50 was 1.9 µM.

**Q.** And the IC50 [2]?
**A.** The IC50 was 14.6 µM.

**Q.** How did the IC50 [3] turn out when `CCN(CC)CCCOc1ccc2nc3n(c(=O)c2c1)Cc1ccccc1-3` was run?
**A.** The IC50 was 0.2 µM.

**Q.** What about the IC50 [1] of the same compound?
**A.** Its IC50 is 0.011 µM.

**Q.** What about the IC50 [2] of the same compound?
**A.** Its IC50 is 1.88 µM.

**Q.** For `O=c1c2cc(OCCCN3CCCCC3)ccc2nc2n1CCc1ccccc1-2`, which IC50 [3] is on record?
**A.** Its IC50 is 0.217 µM and 0.216 µM.

**Q.** What about the IC50 [1] of the same compound?
**A.** Its IC50 is 0.0055 µM.

**Q.** What about the IC50 [2] of the same compound?
**A.** Its IC50 is 0.955 µM.

**Q.** Which results are given for `c1cc2c(cc1OCCCN1CCCCC1)CN1CCCC1=N2`?
**A.** Ki [4]: 0.0762 µM; IC50 [3]: 0.0339 µM; IC50 [1]: 0.0665 µM

**Q.** What does the source list for `O=c1c2cc(OCCCn3ccnc3)ccc2nc2n1CCCCC2`?
**A.** IC50 [1]: 3.95 µM; IC50 [2]: 59.8 µM

**Q.** Which results are given for `O=c1c2cc(OCCCN3CCc4ccccc4C3)ccc2nc2n1Cc1ccccc1-2`?
**A.** IC50 [1]: 0.227 µM; IC50 [2]: 1.73 µM

**Q.** With `O=c1c2cc(OCCCN3CCc4ccccc4C3)ccc2nc2n1CCC2` as the compound, how does the IC50 [1] read?
**A.** Its IC50 is 0.868 µM.

**Q.** What about the IC50 [2] of the same compound?
**A.** The IC50 was 0.776 µM.

**Q.** `O=c1c2cc(OCCCN3CCc4ccccc4C3)ccc2nc2n1CCCCC2` was tested. Which IC50 [1] did it give?
**A.** Its IC50 is 0.653 µM.

**Q.** And the IC50 [2]?
**A.** The IC50 was 3.03 µM.

**Q.** Which IC50 [3] does the source give for `O=c1c2cc(OCCCN3CCCCC3)ccc2nc2n1CCCc1ccccc1-2` here?
**A.** Its IC50 is 0.535 µM.

**Q.** And the IC50 [1]?
**A.** The IC50 was 0.0571 µM.

**Q.** What about the IC50 [2] of the same compound?
**A.** Its IC50 is 2.67 µM.

**Q.** What does the source list for `O=c1c2cc(OCCCn3ccnc3)ccc2nc2n1Cc1ccccc1-2`?
**A.** IC50 [1]: 0.454 µM; IC50 [2]: 9.11 µM

**Q.** Which IC50 [1] does the source give for `O=c1c2cc(OCCCN3CCCC3)ccc2nc2n1CCCCC2` here?
**A.** Its IC50 is 0.295 µM.

**Q.** And the IC50 [2]?
**A.** The IC50 was 12.2 µM.

**Q.** `O=c1c2cc(OCCCN3CCCCCC3)ccc2nc2n1CCCc1ccccc1-2` was tested. Which IC50 [1] did it give?
**A.** The IC50 was 0.0534 µM.

**Q.** What about the IC50 [2] of the same compound?
**A.** The IC50 was 0.865 µM.

**Q.** Which IC50 [3] does the source give for `O=c1c2cc(OCCCN3CCCCC3)ccc2nc2n1CCCC2` here?
**A.** Its IC50 is 0.225 µM.

**Q.** And the IC50 [1]?
**A.** The IC50 was 0.0333 µM.

**Q.** And the IC50 [2]?
**A.** The IC50 was 6.55 µM.

**Q.** How did the IC50 [1] turn out when `O=c1c2cc(OCCCCCCCCCN3CCCCC3)ccc2nc2n1CCC2` was run?
**A.** Its IC50 is 0.39 µM.

**Q.** And the IC50 [2]?
**A.** Its IC50 is 8.6 µM.

**Q.** What does the source list for `O=c1c2cc(OCCCn3ccnc3)ccc2nc2n1CCCC2`?
**A.** IC50 [1]: 4.24 µM; IC50 [2]: 50 µM and 59 µM

**Q.** For `O=c1c2cc(OCCCN3CCCCCC3)ccc2nc2n1Cc1ccccc1-2`, which IC50 [1] is on record?
**A.** Its IC50 is 0.005 µM.

**Q.** And the IC50 [2]?
**A.** The IC50 was 1.87 µM.

**Q.** How did the IC50 [1] turn out when `O=c1c2cc(OCCCN3CCCCCC3)ccc2nc2n1CCc1ccccc1-2` was run?
**A.** Its IC50 is 0.013 µM.

**Q.** What about the IC50 [2] of the same compound?
**A.** The IC50 was 0.584 µM.

**Q.** `O=c1c2cc(OCCCN3CCCC3)ccc2nc2n1CCCc1ccccc1-2` was tested. Which IC50 [1] did it give?
**A.** The IC50 was 0.529 µM.

**Q.** What about the IC50 [2] of the same compound?
**A.** Its IC50 is 3.61 µM.

**Q.** Which IC50 [3] does the source give for `O=c1c2cc(OCCCN3CCCCC3)ccc2nc2n1Cc1ccccc1-2` here?
**A.** The IC50 was 0.143 µM and 0.142 µM.

**Q.** What about the IC50 [1] of the same compound?
**A.** Its IC50 is 0.0069 µM.

**Q.** For `O=c1c2cc(OCCCN3CCCC3)ccc2nc2n1Cc1ccccc1-2`, which IC50 [1] is on record?
**A.** The IC50 was 0.0162 µM.

**Q.** What about the IC50 [2] of the same compound?
**A.** The IC50 was 2.4 µM.

**Q.** What does the source list for `O=c1c2cc(OCCCC3CCCCC3)ccc2nc2n1Cc1ccccc1-2`?
**A.** inhibition [5]: 34%; inhibition [6]: inactive; inhibition [7]: 35%

**Q.** How did the IC50 [1] turn out when `O=c1c2cc(OCCCN3CCCC3)ccc2nc2n1CCc1ccccc1-2` was run?
**A.** The IC50 was 0.0911 µM.

**Q.** `O=c1c2cc(OCCCn3ccnc3)ccc2nc2n1CCc1ccccc1-2` was tested. Which IC50 [1] did it give?
**A.** Its IC50 is 2.44 µM.

**Q.** What about the IC50 [2] of the same compound?
**A.** The IC50 was 8.68 µM.

**Q.** Which results are given for `O=c1c2cc(OCCCN3CCc4ccccc4C3)ccc2nc2n1CCc1ccccc1-2`?
**A.** IC50 [1]: 0.625 µM; IC50 [2]: 1.83 µM

**Q.** With `O=c1c2cc(OCCCN3CCc4ccccc4C3)ccc2nc2n1CCCC2` as the compound, how does the IC50 [1] read?
**A.** Its IC50 is 0.723 µM.

**Q.** And the IC50 [2]?
**A.** Its IC50 is 5.49 µM.

**Q.** What does the source list for `CCN(CC)CCCOc1ccc2nc3n(c(=O)c2c1)CCc1ccccc1-3`?
**A.** IC50 [3]: 0.669 µM; IC50 [1]: 0.0475 µM; IC50 [2]: 2.16 µM

**Q.** Which IC50 [1] does the source give for `O=c1c2cc(OCCCN3CCc4ccccc4C3)ccc2nc2n1CCCc1ccccc1-2` here?
**A.** Its IC50 is 1.19 µM.

**Q.** What about the IC50 [2] of the same compound?
**A.** Its IC50 is 1.84 µM.

**Q.** How did the IC50 [3] turn out when `O=c1c2cc(OCCCn3ccnc3)ccc2nc2n1CCCc1ccccc1-2` was run?
**A.** The IC50 was 56.5 µM.

**Q.** And the IC50 [1]?
**A.** The IC50 was 10.3 µM.

**Q.** What about the IC50 [2] of the same compound?
**A.** Its IC50 is 52 µM.

**Q.** Which results are given for `CCN(CC)CCCOc1ccc2nc3n(c(=O)c2c1)CCCCC3`?
**A.** IC50 [3]: 12.1 µM; IC50 [1]: 0.0506 µM; IC50 [2]: 10.8 µM

**Q.** `O=c1c2cc(OCCCN3CCCCCC3)ccc2nc2n1CCCC2` was tested. Which IC50 [1] did it give?
**A.** Its IC50 is 0.0585 µM.

**Q.** And the IC50 [2]?
**A.** Its IC50 is 1.77 µM and 2.67 µM.

**Q.** Which results are given for `O=c1c2cc(OCCCN3CCCCC3)ccc2nc2n1CCC2`?
**A.** IC50 [3]: 1.1 µM; IC50 [1]: 0.0692 µM; IC50 [2]: 122 µM

**Q.** How did the IC50 [3] turn out when `CCN(CC)CCCOc1ccc2nc3n(c(=O)c2c1)CCCC3` was run?
**A.** Its IC50 is 1.5 µM.

**Q.** What about the IC50 [1] of the same compound?
**A.** The IC50 was 0.043 µM.

**Q.** And the IC50 [2]?
**A.** The IC50 was 9.14 µM.

**Q.** What does the source list for `O=c1c2cc(OCCCN3CCCC3)ccc2nc2n1CCC2`?
**A.** IC50 [1]: 0.05 µM; IC50 [2]: 10.6 µM

**Q.** Which IC50 [1] does the source give for `O=c1c2cc(OCCCN3CCCC3)ccc2nc2n1CCCC2` here?
**A.** The IC50 was 0.21 µM.

**Q.** And the IC50 [2]?
**A.** The IC50 was 16.1 µM.

**Q.** What does the source list for `CCN(CC)CCCOc1ccc2nc3n(c(=O)c2c1)CCC3`?
**A.** IC50 [3]: 1.2 µM; IC50 [1]: 0.101 µM; IC50 [2]: 0.829 µM

**Q.** With `CCN(CC)CCCOc1ccc2nc3n(c(=O)c2c1)CCCc1ccccc1-3` as the compound, how does the IC50 [3] read?
**A.** The IC50 was 4.2 µM.

**Q.** And the IC50 [1]?
**A.** The IC50 was 0.0721 µM.

**Q.** What about the IC50 [2] of the same compound?
**A.** The IC50 was 5.1 µM.
